Results taken from a melting point compilation (Tetko et al.; mined from patent text by program, amines drawn as free bases though some values may be those of a salt).

| SMILES | melting point [°C] |
| --- | --- |
| COC(=O)N=CNNc1cc(SCC(C)C)ccc1NC(C)=O | 180 to 184 |
| COc1ccc(C2=Cc3ccc(O)cc3OC2)cc1 | 161 to 163 |
| CSc1ccc(N2CCc3ccccc32)c([N+](=O)[O-])c1 | 67 to 69 |
| CCOC(=O)c1cnc2sc(-c3ccc([N+](=O)[O-])cc3)c(C)c2c1O | 260 to 261 |
| CSC(C(=O)N(C)C)c1cccc(C(=O)c2ccccc2)c1N (configuration not stated) | 153 to 155 |
| CCCCc1nn(-c2cc(NC(=O)CC)ccc2Cl)c(=O)n1Cc1ccc(-c2ccccc2S(=O)(=O)NC(=O)c2occ(Cl)c2Cl)cc1 | 223 to 226 |
| Nc1ccc2c(C(F)(F)F)cc(C(F)(F)F)nc2n1 | 198 to 204 |
| CC(C)(C)NC(=O)[C@@H]1CCCN1C(=O)[C@@H](O)[C@H](Cc1ccccc1)N(Cc1ccccc1)Cc1ccccc1 | 122 to 123 |
| O=C(c1ccccc1)c1cc2cc(Cl)ncc2[nH]1 | 194 to 197 |
| CCC(COC)Nc1c([N+](=O)[O-])cc(C)c(C)c1[N+](=O)[O-] (single isomer, unassigned; (-)) | 42.5 to 44 |
| c1ccc(-c2nc(COc3ccc(CCCn4ccnc4)cc3)cs2)cc1 | 110 to 111 |
| CCOC(=O)c1c(CC(=O)O)n(-c2ccc(OC(C)C)cc2)c2ccc(Oc3ccc(C(F)(F)F)cc3)cc12 | 158 |
| COc1ccnc(CCc2nc3cc(Br)cnc3[nH]2)c1 | 207 to 209 |
| CC(C)(C)OC(=O)N1CCC(Nc2cccc(NC(=O)c3ccc(F)cc3Cl)n2)CC1 | 82 |
| O=C(O)c1ccc(COc2cccc(-c3c(-c4ccccc4)cnc4c(C(F)(F)F)cccc34)c2)cc1 | 108 to 112 |
| CC(=CC1=NCCC1)N(C)C1CCCCC1 | 152 to 153 |
| CS(=O)(=O)NCCCCC(c1cc(F)ccc1F)S(=O)(=O)c1ccc(Cl)cc1 (configuration not stated) | 106 to 107 |
| COc1ccc(CCc2ccc3ccc(C(=O)NCC(O)c4ccccc4)c(O)c3n2)cc1 (configuration not stated) | 69 to 72 |
| CCCOc1ncc2c(=O)[nH]c(-c3ccccc3OCCC)nc2n1 | 157 to 158 |

| SMILES | melting point [°C] |
| --- | --- |
| O=C(c1cccc(O)c1)C(O)c1cccc(O)c1 (configuration not stated) | 159 to 162 |
| CC(c1oc2ccccc2c(=O)c1-c1cccc(F)c1)n1nc(-c2ccc(F)cc2O)c2c(N)ncnc21 (configuration not stated) | 235 to 237 |
| CCCc1ccnc2c(=O)[nH]c(-c3cc(S(=O)(=O)NCCN4CCOCC4)ccc3OCC)nc12 | 165 to 166 |
| CC(C)CNC(=O)CC1Sc2sc(S(N)(=O)=O)cc2NC1=O (configuration not stated) | > 250 |
| N#CCNC(=O)c1ccnc(Cl)c1 | 131 to 132 |
| CC1CN(c2c(F)c(N)c3c(=O)c(C(=O)O)cn(C4CC4)c3c2OC(F)F)CCN1 (configuration not stated) | 283 to 286 |
| CCOC(=O)CCC1CCN(c2ccc(C#N)c3ccccc23)CC1 | 106 to 107 |
| CC(=O)OC1CSC(Oc2cncc(-c3ncccc3C)c2)C(OC(C)=O)C1OC(C)=O (configuration not stated) | 148 to 150 |
| COc1cc(C=C2NC(=O)N(C)C2=O)ccc1O | 227 to 228 |
| COc1cc2c(c3c1OC(C)(C)C3)C(c1ccccc1)=NC(CO)C2 (configuration not stated) | 156 to 158 |
| OC[C@H]1CCCN1c1cc(N2CCc3ccccc3C2)c2ccccc2n1 | 74 to 80 |
| COc1c(C)cc2c(c1C)Cc1c-2[nH]c2ccc(C(C)C)cc12 | 130 |
| CCC(OC)(c1ccc(OCc2ccc3ccccc3n2)c(OC)c1)c1nccs1 (configuration not stated) | 100 to 102 |
| O=C1NCCc2ccccc2C1c1ccccc1 (configuration not stated) | 95 to 96 |
| Cc1c(SCc2ccsc2)ccnc1CSc1nc2ccccc2[nH]1 | 161 to 164 |
| CCOC(=O)C(C#N)(CCCN(C)CCc1cccc(C(=O)OC)c1)c1ccc(OC)c(OC)c1 (configuration not stated) | 89 to 91 |
| O=P(O)(O)c1cccc(OCc2ccc3ccccc3c2)c1 | 131 to 134 |
| CC(C)(C#N)Cc1ccc(-c2ccc(CC(C)(C)C#N)c(Cl)c2)cc1Cl | 148 to 156 |
